Results published in patent publication EP0267740A1, “Naphthyridine and pyridopyrazine compounds and pharmaceutical usage thereof” (SCHERING CORPORATION, priority 1986, dated 1988).

How the values were obtained:
[1] = tested on: release of SRS-A from sensitized guinea pig lung fragments; experiment: Measurement of SRS-A release from sensitized guinea pig lung fragments after antigen (ovalbumin) challenge; type: cell-based; settings: Dose (Molar Conc.) 1 x 10^-5; lung fragments incubated with compound 12 min at 37°C, challenge with 20µg ovalbumin/ml
Protocol: The anti-allergy property of the compounds of this invention is evaluated by measuring the inhibition of the release of the mediator SRS-A (slow reacting substance of anaphylaxis) from sensitized guinea pig lung fragments after antigen challenge.
The release of SRS-A and histamine was studied in lungs from actively sensitized guinea pigs. Male Hartley guinea pigs (250-300 g, obtained from Charles River or Dutchland Farms) were sensitized with 5 mg ovalbumin injected intraperitoneally and 5 mg subcutaneously in 1 ml saline on day one, and 5 mg ovalbumin injected intraperitoneally on day four. The sensitized animals were used 3-4 weeks later.
Sensitized guinea pigs were killed by a blow to the head and the lungs removed and cleaned of visable connective tissue, trachea and large blood vessels. The lungs from individual animals were sliced into fragments approximately 1 mm in thickness using a McIlwain chopper and then washed with oxygenated Tyrode's buffer. Weighed aliquots (approximately 400 mg wet weight) of lung were transferred into vials containing 2 ml of fresh Tyrode's solution and incubated in the presence or absence of test compound for 12 min at 37°C followed by challenge of the tissue with 20µg ovalbumin/ml (final concentration). After an additional 15 min incubation, the vials were cooled to 4°C and 1.5 ml of clear supernatant media was removed and mixed with 6 ml of cold 100% ethanol. This mixture was thoroughly vortexed and kept at -15°C for 30 min to allow precipitation of protein. The samples were then centrifuged at 1000 x g for 15 min at 2°C and the clear supernatant fluid removed into polyethylene tubes and taken to dryness at 50°C under a stream of N₂ gas. The samples were stored at -70°C until assayed for SRS-A by bioassay or radioimmune assay.

[2] = Reversed Passive Arthus Reaction (RPAR) paw technique, anti-inflammatory test; type: in vivo, Male Lewis inbred albino rats; settings: Oral Dose 25 mg/kg by gavage in methyl cellulose, rat paw volume 2 hours post-challenge
Protocol: The compounds of this invention are also effective for the treatment of inflammation; thus they are useful for the treatment of arthritis, bursitis, tendonitis, gout and other inflammatory conditions. […] The potency of the compounds described and claimed herein for treatment of inflammatory conditions is determined using indomethacin as the standard.
Male Lewis inbred albino rats weighing 180-220 grams obtained from Charles River Breeding Laboratories are used in these experiments. The rats are housed 3 animals/cage and food and water are allowed ad libitum. The animals are numbered 1-3 in each cage and color marked for identification purposes.
All reagents and drugs are prepared just prior to the study. Crystallized and lyophilized bovine serum albumin (BSA), obtained from Sigma Chemical Company, is solubilized without shaking in cold sterile pyrogen free saline (10 mg/ml). […]
Groups of animals (6/group) are dosed with drug in MC by gavage one hour prior to sensitization with BSA. […] The volume of mercury displaced is converted to weight and recorded. […] Paw volumes are also recorded with a plethysmograph during the development of the inflammation at 2 and 4 hours post-challenge, and the results are shown in Table B below.

Row | Compound | % Inhibition (INHIBITION OF SRS-A RELEASE FROM GUINEA PIG LUNG) [1] [%] | % Inhibition 2 hrs. [2] [%]
1 | CCCCc1c(O)c2cccnc2n(-c2cccnc2)c1=O | 33 | 64
2 | O=C1CCN(c2ccccc2)N1 [1-phenyl-3-pyrazolidinone, reference compound] | 41 | 
3 | CCCCc1c(O)c2cccnc2n(-c2ccc3c(c2)CCC3)c1=O [3-(n-BUTYL)-4-HYDROXY-1-(5-INDANYL)-1,8-NAPHTHYRIDIN-2(1H)-ONE] | 55 | 23
